The record followed here is patent publication US10227327B2, “Inhibitors of metallo-beta-lactamase (MBL) comprising a zinc chelating moiety” (Universitetet I Oslo, priority 2013, dated 2019).

Test [1] has as its system E. coli 50739467 (MBL negative). The test can be described thus: Microbroth dilution, meropenem MIC with/without compound. The conditions noted are these: compound at 125 μM; 50739467 E. coli MBL negative. Type of test: cell-based. As to the method:
(§1) General Protocol for Microbroth Dilution Method for Evaluating Antibacterial Activity of Compounds or Synergistic Effect of Compound-Antibiotic Combination
(§2) • Plate bacterial strain(s) on appropriate media: • Gram-negative bacteria with ESBLs or carbapenemases: green agar plates with 100 mg/L ampicillin • Gram-negative bacteria without β-lactamases: green agar plates • Gram-positive bacteria (Staphylococci and Enterococci): blood agar plates • Incubate o.n. at 37° C. Day 2: Prepare the Bacterial Inoculum: • Prepare a 0.5 McFarland suspension of bacteria in 0.85% NaCl. (Should be used within 15 min of preparation). • Dilute the 0.5 McFarland suspension 1:100 into MH broth. Check the inoculum by diluting the prepared bacterial suspension 1:100 (10 μl bacterial suspension+990 μl 0.85% NaCl). Plate 10 μl of the dilution on MH agar plates (×2). Incubate o.n. at 37° C., count the colonies and calculate the final CFU/ml inoculum in the plate by multiplying the average number of colonies with 10000 and divide by 2. The final inoculum should be between 3-7×10^5 CFU/ml. • Add 50 μl of the prepared bacterial suspension to each well in the microtiter plate except negative growth control. Preparation of Compounds/Antibiotics • Calculate the desired concentration-range and volume of the compounds/antibiotics in the assay. […] Dilute the stock solution in MH broth. Make subsequent 2-fold dilutions in MH broth of the desired concentrations if a concentration range is to be tested (remember the extra dilution factor in the assay plate). Always include extra volume for pipetting. Take into consideration stock solutions that are made in buffers that have an effect on bacterial growth (e.g. DMSO). Assay: • Determining the MIC of compounds/antibiotics alone: • Add 25 μl of each concentration of compound/antibiotic to row 2-11 (highest concentration in row 2) • Add 25 μl MH broth to row 2-11 • Add 50 μl MH broth to row 12 (positive control) • Add 100 μl MH broth to row 1 • Add 50 μl bacterial suspension to row 2-12. • Determining the MIC of antibiotics+compounds: • Add 25 μl of each concentration of antibiotic to row 2-11 (highest concentration in row 2) • Add 25 μl of compound to row 2-11 • Add 50 μl MH broth to row 12 (positive control) • Add 100 μl MH broth to row 1 • Add 50 μl bacterial suspension to row 2-12. • Incubate the plate for 20 hrs at 37° C. and determine the MIC in the presence and absence of inhibitor.

Test [2] relates to P. aeruginosa 50808021 (MBL negative). The test is described as above. Type of test: cell-based. To be noted: compound at 125 μM; 50808021 P. aeruginosa MBL negative. On the procedure:
as §1, §2

Test [3] deals with K. pneumoniae 50732159 (MBL negative). Described as above. Type of test: cell-based. To be noted: compound at 125 μM; 50732159 K. pneumoniae MBL negative. As to the method: as §1, §2
The target in test [4] is NDM-1 (Klebsiella pneumoniae, UniProt C7C422). Kind of test: IC50 determination against purified MBL, nitrocefin reporter substrate. Type of test: biochemical. The conditions noted are these: purified enzyme 1 nM, nitrocefin 50 μM, 25° C. On the procedure: (§3) General Protocol for Determination of IC50-Values
(§4) Buffers: A: 50 mM HEPES pH 7.2, 100 μM ZnCl2
(§5) • B: 50 mM HEPES pH 7.2, 100 μM ZnCl2 and 400 μg/ml Bovine Serum Albumin (BSA) Equipment: SpectraMax 96 well reader • 96 well plates • Cuvettes • General plastics: dilution tubes, eppendorfs etc. Method: Inhibitors: a. Dissolved in 100% DMSO at a concentration of 10 mM • b. Dissolve the inhibitor in buffer A to a concentration of 25% DMSO. No more than 2.5% DMSO is tolerable in the assay. 100% DMSO (10 mM); […]; […] • c. Make a 2-fold dilution series of the inhibitor. At least 8 dilutions should be made. See example in table 1 Reporter Substrate (Nitrocefin): • a. Dilute a small amount of nitrocefin in 1 ml of DMSO • b. Add 990 μl buffer A+10 μl of nitrocefin to a cuvette. • c. Measure initial OD at absorbance specific for the substrate • d. Add purified enzyme to the cuvette and let the hydrolysis run to completion (the more concentrated the enzyme the faster the hydrolysis will run) • e. Measure the end OD • f. Calculate the concentration of substrate: [(End OD−Initial OD)×dilution factor]/Δε (Δε Nitrocefin=17400) • g. Dilute nitrocefin to 100 μM in buffer A Enzyme: Dilute purified enzyme in buffer B to a concentration of 10 nM. Assay: a. Set the settings and temperature on the Spectramax/software: • I. Kinetics • II. λ: 482 • III. Time: 20 min • IV. Interval: 2-5 sec. • V. Mix before 1st read: 5 sec. • VI. Temp: 25° C. • b. Add 30 μl buffer A, 10 μl purified enzyme (final concn. 1 nM), and 10 μl inhibitor to assay wells (duplicates for each inhibitor concentration). Also include a negative control. Wells with no added inhibitor, just 40 μl buffer A. See illustration in table 1. • c. Incubate the plate in the reader for 5 min. • d. Add 50 μl nitrocefin (final concn. 50 μM) to assay wells. This should be done quickly—preferably with an electronic multi-channel pipette. • e. Start the readings immediately. Determine: the initial velocity (V0) for each inhibitor concentration and calculate IC50.

Test [5] has as its target VIM-2 (Escherichia coli, UniProt Q5U7L7). Described as above. Type of test: biochemical. The conditions noted are these: purified enzyme 1 nM, nitrocefin 50 μM, 25° C. As to the method: as §3, §4, §5
For test [6], the target named is GIM-1 (Pseudomonas aeruginosa, UniProt Q704V1). The description is as above. To be noted: purified enzyme 1 nM, nitrocefin 50 μM, 25° C. The class given is biochemical. As to the method:
as §3, §4, §5

The target of test [7] is VIM-2 in E. coli SNO3 containing pET26b-blaVIM-2 (Escherichia coli, UniProt Q5U7L7). Kind of test: MBL inhibition in whole E. coli cells expressing MBL (nitrocefin hydrolysis). The class given is cell-based. To be noted: whole cell, test substance 250 μM.
The test system of test [8] is MBL-producing P. aeruginosa, K. pneumoniae and E. coli. The test can be described thus: Synergy with meropenem in MBL-producing clinical strains. The class given is cell-based. To be noted: compound 125 μM. On the procedure:
as §1
(§6) • Plate bacterial strain(s) on appropriate media: • Gram-negative bacteria with ESBLs or carbapenemases: green agar plates with 100 mg/L ampicillin • Gram-negative bacteria without β-lactamases: green agar plates • Gram-positive bacteria (Staphylococci and Enterococci): blood agar plates • Incubate o.n. at 37° C. Day 2: Prepare the Bacterial Inoculum: • Prepare a 0.5 McFarland suspension of bacteria in 0.85% NaCl. (Should be used within 15 min of preparation). • Dilute the 0.5 McFarland suspension 1:100 into MH broth. Check the inoculum by diluting the prepared bacterial suspension 1:100 (10 μl bacterial suspension+990 μl 0.85% NaCl). Plate 10 μl of the dilution on MH agar plates (×2). Incubate o.n. at 37° C., count the colonies and calculate the final CFU/ml inoculum in the plate by multiplying the average number of colonies with 10000 and divide by 2. The final inoculum should be between 3-7×10^5 CFU/ml. • Add 50 μl of the prepared bacterial suspension to each well in the microtiter plate except negative growth control. Preparation of Compounds/Antibiotics • Calculate the desired concentration-range and volume of the compounds/antibiotics in the assay. […] Dilute the stock solution in MH broth. […]

The target of test [9] is GIM-1 in E. coli SNO3 containing pET26b-blaGIM-1 (Pseudomonas aeruginosa, UniProt Q704V1). Kind of test: MBL inhibition in whole E. coli cells expressing MBL (nitrocefin hydrolysis). Type of test: cell-based. To be noted: whole cell, test substance 250 μM.
The test system of test [10] is MBL-negative clinical strains. The test can be described thus: Synergy with meropenem in MBL-negative clinical strains. The class given is cell-based. On the procedure:
as §1, §6

Test [11] relates to P. aeruginosa K34-7 (VIM-2). The test can be described thus: Microbroth dilution, meropenem MIC with/without compound. The class given is cell-based. The conditions noted are these: compound at 125 μM; K34-7 P. aeruginosa VIM-2. On the procedure:
as §1, §2
(In broth dilution the organism is exposed to a series of concentrations in liquid medium.)

Test [12] relates to E. coli K71-77 (NDM-1). Described as above. The class given is cell-based. To be noted: compound at 125 μM; K71-77 E. coli NDM-1. As to the method:
as §1, §2

The test system of test [13] is P. aeruginosa 50692172 (NDM-1). The description is as above. The class given is cell-based. The conditions noted are these: compound at 125 μM; 50692172 P. aeruginosa NDM-1. On the procedure:
as §1, §2

The test system of test [14] is K. pneumoniae K66-45 (NDM-1). The description is as above. Type of test: cell-based. The conditions noted are these: compound at 125 μM; K66-45 K. pneumoniae NDM-1. On the procedure: as §1, §2
The subject of test [15] is E. coli 50639799 (VIM-1). The test is described as above. Type of test: cell-based. The conditions noted are these: compound at 125 μM; 50639799 E. coli VIM-1. As to the method:
as §1, §2

The subject of test [16] is K. pneumoniae A3-81 (VIM-1). The test is described as above. Type of test: cell-based. The conditions noted are these: compound at 125 μM; A3-81 K. pneumoniae VIM-1. As to the method:
as §1, §2

Sequence of NDM-1 (C7C422 whole entry, looked up, species assumed): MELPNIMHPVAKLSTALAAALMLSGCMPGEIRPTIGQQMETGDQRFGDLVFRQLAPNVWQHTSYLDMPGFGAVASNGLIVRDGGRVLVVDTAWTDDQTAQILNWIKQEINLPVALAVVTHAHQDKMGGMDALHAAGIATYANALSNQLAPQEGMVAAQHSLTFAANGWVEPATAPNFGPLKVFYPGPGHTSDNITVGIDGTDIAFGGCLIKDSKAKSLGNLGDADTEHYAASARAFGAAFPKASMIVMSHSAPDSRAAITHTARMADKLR
Sequence of GIM-1 (Q704V1 19-250 limits assumed): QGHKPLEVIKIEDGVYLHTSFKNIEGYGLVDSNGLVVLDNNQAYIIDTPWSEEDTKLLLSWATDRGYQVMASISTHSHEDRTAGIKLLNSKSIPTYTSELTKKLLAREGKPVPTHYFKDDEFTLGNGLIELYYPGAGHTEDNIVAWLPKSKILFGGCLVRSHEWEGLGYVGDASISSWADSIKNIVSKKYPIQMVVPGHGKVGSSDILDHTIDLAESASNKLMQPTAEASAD
Sequence of GIM-1 in E. coli SNO3 containing pET26b-blaGIM-1 (Q704V1 19-250 limits assumed): as above

As for `C[C@@H](N)C(=O)N[C@H](C)C(=O)NCCc1ccc(NC(=O)CN(Cc2ccccn2)Cc2ccccn2)cc1.Cl` [Example 24, (R)-1-(((R)-1-((4-(2-(bis(pyridin-2-ylmethyl)amino)acetamido)phenethyl)amino)-1-oxopropan-2-yl)amino)-1-oxopropan-2-aminium chloride], the entries for the “Meropenem MIC (mg/L) in presence of compound” value in test [1], in [2] and in test [3] were 0.5 mg/L, 128 to 256 mg/L and 32 mg/L, respectively. The IC50 (usually the midpoint of a concentration-inhibition curve) in test [4] stood at 0.52 µM; in test [5], 22.8 µM; in test [6], 0.4 µM. In addition, the inhibition (usually the change of the read-out against control, counted positive when it falls) at 250 µM was found to be 98.2% in test [7] and 69.2% in [9]. Moreover, the “synergistic activity with meropenem” value in test [8] is reported as “strong synergistic potentiation of meropenem”. In addition, the “synergistic effect with meropenem” value in test [10] is “No synergistic effect”.
`C[C@H](CS)C(=O)N1CCC[C@H]1C(=O)O` [Captopril]: the “Meropenem MIC (mg/L) in presence of compound” value in test [11] is 32 mg/L; in test [12], 2 to 4 mg/L; in [13], 32 to 64 mg/L; in [14], 64 mg/L; in [15] it was 16 mg/L; in test [16], 64 to 128 mg/L.
